# Experimental data as given in ChEMBL document CHEMBL3132818, “Heterocycle-fused lupane triterpenoids inhibit Leishmania donovani amastigotes” (Medchemcomm, 2014).
# pIC50: −log10 of the molar value.
# Legend:
# Leishmania donovani [1] = experiment: Antileishmanial activity against axenic amastigote stage of Leishmania donovani MHOM/SD/1962/1S-Cl2d assessed as parasite growth inhibition at 50 uM after 24 hrs by AlamarBlue assay (reference value: 0.0 +/- 4.6%); type: functional; conditions: read-out: GI
# [2] = Selectivity index, ratio of IC50 for human THP1 cells to IC50 for axenic amastigote stage of Leishmania donovani MHOM/SD/1962/1S-Cl2d; type: toxicity, cell-based, THP-1; conditions: read-out: Ratio IC50
# THP-1 = experiment: Cytotoxicity against human THP1 cells assessed as cell viability after 48 hrs by AlamarBlue assay; type: cell-based; conditions: THP-1, 48 h
# Leishmania donovani [3] = experiment: Antileishmanial activity against axenic amastigote stage of Leishmania donovani MHOM/SD/1962/1S-Cl2d assessed as parasite growth inhibition after 24 hrs by AlamarBlue assay; type: functional, organism-based
# Leishmania donovani [4] = experiment: Antileishmanial activity against axenic amastigote stage of Leishmania donovani MHOM/SD/1962/1S-Cl2d assessed as parasite growth inhibition at 5 uM after 24 hrs by AlamarBlue assay (reference value: 0.0 +/- 0.9%); type: functional; conditions: read-out: GI
# Leishmania donovani [5] = experiment: Antileishmanial activity against axenic amastigote stage of Leishmania donovani MHOM/SD/1962/1S-Cl2d assessed as parasite growth inhibition at 15 uM after 24 hrs by AlamarBlue assay (reference value: 1.5 +/- 3.8%); type: functional; conditions: read-out: GI
# Leishmania donovani [6] = experiment: Antileishmanial activity against intracellular amastigote stage of Leishmania donovani infected in human THP1 cells assessed as parasite growth inhibition at 5 uM after 48 hrs by luciferase reporter gene assay relative to control; type: functional; conditions: THP-1, 48 h, read-out: GI
# Leishmania donovani [7] = experiment: Antileishmanial activity against intracellular amastigote stage of Leishmania donovani infected in human THP1 cells assessed as parasite growth inhibition at 1 uM after 48 hrs by luciferase reporter gene assay relative to control; type: functional; conditions: THP-1, 48 h, read-out: GI
# Leishmania donovani [8] = experiment: Antileishmanial activity against axenic amastigote stage of Leishmania donovani MHOM/SD/1962/1S-Cl2d assessed as parasite growth inhibition at 1 uM after 24 hrs by AlamarBlue assay relative to control; type: functional; conditions: read-out: GI
SMILES,inhibition of growth at 50 µM (Leishmania donovani [1]) [%],inhibition of growth at 5 µM (Leishmania donovani [4]) [%],inhibition of growth at 15 µM (Leishmania donovani [5]) [%],other results
C=C(C)[C@@H]1CC[C@]2(C(=O)O)CC[C@]3(C)[C@H](CC[C@@H]4[C@@]5(C)CC[C@H](O)C(C)(C)[C@@H]5CC[C@]43C)[C@@H]12 [BETULINIC ACID],61.1,–,–,–
C=C(C)[C@@H]1CC[C@]2(C(=O)O)CC[C@]3(C)[C@H](CC[C@@H]4[C@@]5(C)CC[C@H](OC(=O)CC(C)(C)C(=O)O)C(C)(C)[C@@H]5CC[C@]43C)[C@@H]12 [BEVIRIMAT],100,59,69.1,selectivity ratio [2]: 7.5; pIC50 (THP-1): 4.27; pIC50 (Leishmania donovani [3]): 5.14
C=C(C)[C@@H]1CC[C@]2(C(=O)O)CC[C@]3(C)[C@H](CC[C@@H]4[C@@]5(C)Cc6nccnc6C(C)(C)[C@@H]5CC[C@]43C)[C@@H]12,92.7,20.3,79.7,pIC50 (Leishmania donovani [3]): 4.88
C=C(C)[C@@H]1CC[C@]2(C(=O)O)CC[C@]3(C)[C@H](CC[C@@H]4[C@@]5(C)Cc6c([nH]c7ccc(OC)cc67)C(C)(C)[C@@H]5CC[C@]43C)[C@@H]12,29.3,14,17.5,–
C=C(C)[C@@H]1CC[C@]2(COC(C)=O)CC[C@]3(C)[C@H](CC[C@@H]4[C@@]5(C)Cc6cnoc6C(C)(C)[C@@H]5CC[C@]43C)[C@@H]12,6.1,–,–,–
C=C(C)[C@@H]1CC[C@]2(C(=O)O)CC[C@]3(C)[C@H](CC[C@@H]4[C@@]5(C)Cc6c([nH]c7ccccc67)C(C)(C)[C@@H]5CC[C@]43C)[C@@H]12,23.4,5,27.4,–
C=C(C)[C@@H]1CC[C@]2(C(=O)O)CC[C@]3(C)[C@H](CC[C@@H]4[C@@]5(C)CCC(=O)NC(C)(C)[C@@H]5CC[C@]43C)[C@@H]12,98.2,52,75.2,inhibition of growth at 5 µM (Leishmania donovani [6]): 54%; selectivity ratio [2]: 12.9; pIC50 (THP-1): 4.26; pIC50 (Leishmania donovani [3]): 5.37
CC1(C)CC[C@]23CC[C@]4(C)[C@H](CC[C@@H]5[C@@]6(C)Cc7c([nH]c8ccccc78)C(C)(C)[C@@H]6CC[C@]54C)[C@H]2[C@H]1OC3,19.8,–,18.5,–
C=C(C)[C@@H]1CC[C@]2(C(=O)O)CC[C@]3(C)[C@H](CC[C@@H]4[C@@]5(C)Cc6c[nH]nc6C(C)(C)[C@@H]5CC[C@]43C)[C@@H]12,60.2,–,–,–
CC1(C)CC[C@]23CC[C@]4(C)[C@H](CC[C@@H]5[C@@]6(C)Cc7c([nH]c8ccc(F)cc78)C(C)(C)[C@@H]6CC[C@]54C)[C@H]2[C@H]1OC3,6.8,0.2,10.2,–
C[C@@H]1[C@H](O)[C@@H](C)/C=C/C=C/C=C/C=C/C=C/C=C/C=C/[C@H](O[C@@H]2O[C@H](C)[C@@H](O)[C@H](N)[C@@H]2O)C[C@@H]2O[C@](O)(C[C@@H](O)C[C@@H](O)[C@H](O)CC[C@@H](O)C[C@@H](O)CC(=O)O[C@H]1C)C[C@H](O)[C@H]2C(=O)O [AMPHOTERICIN B],–,–,–,inhibition of growth at 1 µM (Leishmania donovani [7]): 96.7%; inhibition of growth at 1 µM (Leishmania donovani [8]): 99.9%
C=C(C)[C@@H]1CC[C@]2(C=O)CC[C@]3(C)[C@H](CC[C@@H]4[C@@]5(C)Cc6cnoc6C(C)(C)[C@@H]5CC[C@]43C)[C@@H]12,34.2,–,21.1,–
C=C(C)[C@@H]1CC[C@]2(C(=O)O)CC[C@]3(C)[C@H](CC[C@@H]4[C@@]5(C)Cc6cnoc6C(C)(C)[C@@H]5CC[C@]43C)[C@@H]12,95.7,–,15.6,–
C=C(C)[C@@H]1CC[C@]2(CO)CC[C@]3(C)[C@H](CC[C@@H]4[C@@]5(C)Cc6cnoc6C(C)(C)[C@@H]5CC[C@]43C)[C@@H]12,56.9,–,–,–
C=C(C)[C@@H]1CC[C@]2(C(N)=O)CC[C@]3(C)[C@H](CC[C@@H]4[C@@]5(C)Cc6cnoc6C(C)(C)[C@@H]5CC[C@]43C)[C@@H]12,84.3,–,16.7,–
CC(C)[C@@H]1CC[C@]2(C(=O)O)CC[C@]3(C)[C@H](CC[C@@H]4[C@@]5(C)Cc6cnoc6C(C)(C)[C@@H]5CC[C@]43C)[C@@H]12,2.4,–,–,–
C=C(C)[C@@H]1CC[C@]2(C(=O)O)CC[C@]3(C)[C@H](CC[C@@H]4[C@@]5(C)Cc6cccnc6C(C)(C)[C@@H]5CC[C@]43C)[C@@H]12,87.9,–,25.6,–
C=C(C)[C@@H]1CC[C@]2(C(=O)O)CC[C@]3(C)[C@H](CC[C@@H]4[C@@]5(C)CCC(=O)C(C)(C)[C@@H]5CC[C@]43C)[C@@H]12 [BETUNOLIC ACID],98.6,–,45.9,–
C=C(C)[C@@H]1CC[C@]2(/C=N/O)CC[C@]3(C)[C@H](CC[C@@H]4[C@@]5(C)Cc6nccnc6C(C)(C)[C@@H]5CC[C@]43C)[C@@H]12,2.8,–,–,–
C=C(C)[C@@H]1CC[C@]2(C(N)=O)CC[C@]3(C)[C@H](CC[C@@H]4[C@@]5(C)Cc6nccnc6C(C)(C)[C@@H]5CC[C@]43C)[C@@H]12,94.9,–,35.2,–
